Blank lines part the entries; values can stand above or below the compound they belong to.
Key:
[1] = target: Dual specificity tyrosine-phosphorylation-regulated kinase 1B (Homo sapiens, UniProt Q9Y463); assay: Selectivity interaction (Ambit KINOMEscan and KiNATiv profiling in Jurkat cells) EUB0000090b DYRK1B; format: cell-based; conditions: at 1 µM
[2] = target: DNA-dependent protein kinase catalytic subunit (Homo sapiens) (UniProt P78527); assay: Selectivity interaction (ActivX KiNativ screen (kinase selectivity in THP-1 cell lysates)) EUB0000639a PRKDC; format: subcellular; conditions: lysate, at 0.01 µM
Sequence of DNA-dependent protein kinase catalytic subunit (Homo sapiens) (P78527 whole entry): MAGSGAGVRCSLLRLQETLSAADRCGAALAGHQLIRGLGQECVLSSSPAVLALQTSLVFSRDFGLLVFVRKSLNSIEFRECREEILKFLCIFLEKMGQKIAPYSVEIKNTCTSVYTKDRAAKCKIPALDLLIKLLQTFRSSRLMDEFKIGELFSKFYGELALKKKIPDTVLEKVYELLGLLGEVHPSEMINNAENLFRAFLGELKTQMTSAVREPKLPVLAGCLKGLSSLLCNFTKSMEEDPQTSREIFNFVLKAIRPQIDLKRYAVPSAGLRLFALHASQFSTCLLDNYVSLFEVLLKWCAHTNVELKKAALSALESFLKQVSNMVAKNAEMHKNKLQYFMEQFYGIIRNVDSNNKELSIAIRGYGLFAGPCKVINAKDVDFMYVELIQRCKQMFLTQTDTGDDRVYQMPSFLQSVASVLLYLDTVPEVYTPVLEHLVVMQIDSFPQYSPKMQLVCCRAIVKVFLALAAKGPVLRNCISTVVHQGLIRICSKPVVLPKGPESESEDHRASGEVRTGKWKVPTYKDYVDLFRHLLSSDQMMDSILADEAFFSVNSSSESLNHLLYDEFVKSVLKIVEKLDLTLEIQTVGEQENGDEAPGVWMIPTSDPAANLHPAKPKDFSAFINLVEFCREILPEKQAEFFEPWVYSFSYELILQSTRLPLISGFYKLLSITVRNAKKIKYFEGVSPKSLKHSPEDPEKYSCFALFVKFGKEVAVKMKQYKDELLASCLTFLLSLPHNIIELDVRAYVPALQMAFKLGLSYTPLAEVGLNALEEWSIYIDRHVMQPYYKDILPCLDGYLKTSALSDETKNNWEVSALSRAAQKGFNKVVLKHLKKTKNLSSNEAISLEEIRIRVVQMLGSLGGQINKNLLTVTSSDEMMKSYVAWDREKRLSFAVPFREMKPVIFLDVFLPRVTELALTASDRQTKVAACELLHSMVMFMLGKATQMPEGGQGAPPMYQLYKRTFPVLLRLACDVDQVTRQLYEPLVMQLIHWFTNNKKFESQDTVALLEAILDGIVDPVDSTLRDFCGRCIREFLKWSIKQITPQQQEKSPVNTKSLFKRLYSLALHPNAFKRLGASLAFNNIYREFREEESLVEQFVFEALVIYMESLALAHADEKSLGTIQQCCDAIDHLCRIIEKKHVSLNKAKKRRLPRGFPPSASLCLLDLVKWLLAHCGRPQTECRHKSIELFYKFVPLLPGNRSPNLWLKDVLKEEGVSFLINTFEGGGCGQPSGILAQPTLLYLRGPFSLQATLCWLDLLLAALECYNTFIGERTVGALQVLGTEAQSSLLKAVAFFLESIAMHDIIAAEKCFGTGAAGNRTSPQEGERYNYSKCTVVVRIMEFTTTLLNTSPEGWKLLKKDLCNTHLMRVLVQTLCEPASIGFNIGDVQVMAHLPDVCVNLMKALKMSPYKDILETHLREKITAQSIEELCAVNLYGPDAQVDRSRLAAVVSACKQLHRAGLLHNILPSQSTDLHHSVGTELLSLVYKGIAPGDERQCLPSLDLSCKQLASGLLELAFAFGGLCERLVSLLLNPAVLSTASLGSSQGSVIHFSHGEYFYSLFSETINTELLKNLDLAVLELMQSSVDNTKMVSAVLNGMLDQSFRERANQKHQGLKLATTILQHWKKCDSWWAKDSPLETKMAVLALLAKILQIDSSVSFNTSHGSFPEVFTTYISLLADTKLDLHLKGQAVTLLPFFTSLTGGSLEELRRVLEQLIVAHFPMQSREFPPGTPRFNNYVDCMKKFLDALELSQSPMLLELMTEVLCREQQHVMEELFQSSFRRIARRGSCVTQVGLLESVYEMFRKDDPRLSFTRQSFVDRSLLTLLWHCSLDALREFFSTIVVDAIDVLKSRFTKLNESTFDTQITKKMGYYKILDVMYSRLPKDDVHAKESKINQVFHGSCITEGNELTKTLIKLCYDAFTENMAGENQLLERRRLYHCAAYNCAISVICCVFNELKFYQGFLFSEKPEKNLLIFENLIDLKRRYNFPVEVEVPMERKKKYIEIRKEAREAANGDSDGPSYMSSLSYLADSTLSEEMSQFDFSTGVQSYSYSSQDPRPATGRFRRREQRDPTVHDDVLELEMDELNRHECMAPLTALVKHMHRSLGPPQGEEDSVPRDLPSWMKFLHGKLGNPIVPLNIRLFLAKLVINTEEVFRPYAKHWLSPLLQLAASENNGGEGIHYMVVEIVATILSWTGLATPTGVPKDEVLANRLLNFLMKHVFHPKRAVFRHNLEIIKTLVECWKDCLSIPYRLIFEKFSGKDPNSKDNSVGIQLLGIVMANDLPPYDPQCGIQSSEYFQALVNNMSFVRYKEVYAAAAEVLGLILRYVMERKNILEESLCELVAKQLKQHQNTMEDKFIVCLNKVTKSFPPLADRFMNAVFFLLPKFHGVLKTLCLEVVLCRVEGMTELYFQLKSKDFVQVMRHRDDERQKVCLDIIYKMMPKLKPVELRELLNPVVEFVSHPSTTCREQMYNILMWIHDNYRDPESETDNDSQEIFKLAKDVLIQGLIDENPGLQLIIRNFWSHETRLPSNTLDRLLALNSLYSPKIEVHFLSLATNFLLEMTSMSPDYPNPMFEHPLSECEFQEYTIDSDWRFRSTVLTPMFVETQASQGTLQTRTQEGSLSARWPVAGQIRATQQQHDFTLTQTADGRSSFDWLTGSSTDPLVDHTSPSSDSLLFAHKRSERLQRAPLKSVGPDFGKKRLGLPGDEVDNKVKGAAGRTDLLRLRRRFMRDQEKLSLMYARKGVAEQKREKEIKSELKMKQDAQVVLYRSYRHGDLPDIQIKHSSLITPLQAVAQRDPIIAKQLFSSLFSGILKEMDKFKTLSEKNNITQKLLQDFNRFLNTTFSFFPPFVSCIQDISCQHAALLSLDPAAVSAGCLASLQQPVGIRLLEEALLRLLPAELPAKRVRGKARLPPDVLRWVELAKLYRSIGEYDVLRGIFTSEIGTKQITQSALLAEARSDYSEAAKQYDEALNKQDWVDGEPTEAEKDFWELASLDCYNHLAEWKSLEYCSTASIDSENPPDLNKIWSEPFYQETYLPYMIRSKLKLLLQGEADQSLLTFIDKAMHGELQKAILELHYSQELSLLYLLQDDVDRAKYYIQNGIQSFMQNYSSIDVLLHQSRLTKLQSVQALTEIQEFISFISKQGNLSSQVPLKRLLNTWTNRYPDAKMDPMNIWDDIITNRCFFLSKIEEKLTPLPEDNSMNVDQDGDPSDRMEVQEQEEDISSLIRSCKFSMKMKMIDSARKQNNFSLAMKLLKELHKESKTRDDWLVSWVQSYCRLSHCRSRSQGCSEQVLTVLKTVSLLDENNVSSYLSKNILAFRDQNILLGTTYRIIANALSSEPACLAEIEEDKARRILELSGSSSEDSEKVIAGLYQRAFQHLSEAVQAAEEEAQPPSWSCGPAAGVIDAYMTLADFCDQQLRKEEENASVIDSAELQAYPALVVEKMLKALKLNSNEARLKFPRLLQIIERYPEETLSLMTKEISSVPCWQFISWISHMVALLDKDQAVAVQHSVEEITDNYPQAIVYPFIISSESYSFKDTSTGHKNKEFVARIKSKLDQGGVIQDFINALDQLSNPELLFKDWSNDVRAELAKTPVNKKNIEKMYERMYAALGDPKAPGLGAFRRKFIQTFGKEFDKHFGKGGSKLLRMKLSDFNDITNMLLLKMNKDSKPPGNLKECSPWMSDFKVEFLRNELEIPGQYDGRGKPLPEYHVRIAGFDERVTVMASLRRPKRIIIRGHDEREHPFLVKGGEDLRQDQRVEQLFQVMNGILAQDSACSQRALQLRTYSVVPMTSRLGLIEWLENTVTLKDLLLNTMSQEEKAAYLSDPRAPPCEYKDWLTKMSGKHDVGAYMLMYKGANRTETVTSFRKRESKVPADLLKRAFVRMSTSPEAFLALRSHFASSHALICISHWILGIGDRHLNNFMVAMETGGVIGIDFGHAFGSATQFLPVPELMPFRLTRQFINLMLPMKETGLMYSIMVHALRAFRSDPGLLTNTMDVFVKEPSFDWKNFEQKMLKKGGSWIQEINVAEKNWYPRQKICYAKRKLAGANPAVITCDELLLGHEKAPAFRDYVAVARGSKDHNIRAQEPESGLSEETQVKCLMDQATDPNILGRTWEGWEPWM

[3] = target: Tyrosine-protein kinase SYK (Homo sapiens, UniProt P43405); assay: Selectivity interaction (Kinase panel (33PanQinase(R) Activity Assay)) EUB0000877a SYK
[4] = target: Dual specificity mitogen-activated protein kinase kinase 2 (Homo sapiens) (UniProt P36507); assay: Selectivity interaction (KinomeScan (DiscoverX)) EUB0000595a MAP2K2; conditions: at 10 µM
[5] = target: T1, Mitogen-activated protein kinase kinase kinase 3 (Homo sapiens) (UniProt Q99759); assay: Selectivity interaction (ProQinase) EUB0000171b MAP3K3
T1 sequence (whole entry): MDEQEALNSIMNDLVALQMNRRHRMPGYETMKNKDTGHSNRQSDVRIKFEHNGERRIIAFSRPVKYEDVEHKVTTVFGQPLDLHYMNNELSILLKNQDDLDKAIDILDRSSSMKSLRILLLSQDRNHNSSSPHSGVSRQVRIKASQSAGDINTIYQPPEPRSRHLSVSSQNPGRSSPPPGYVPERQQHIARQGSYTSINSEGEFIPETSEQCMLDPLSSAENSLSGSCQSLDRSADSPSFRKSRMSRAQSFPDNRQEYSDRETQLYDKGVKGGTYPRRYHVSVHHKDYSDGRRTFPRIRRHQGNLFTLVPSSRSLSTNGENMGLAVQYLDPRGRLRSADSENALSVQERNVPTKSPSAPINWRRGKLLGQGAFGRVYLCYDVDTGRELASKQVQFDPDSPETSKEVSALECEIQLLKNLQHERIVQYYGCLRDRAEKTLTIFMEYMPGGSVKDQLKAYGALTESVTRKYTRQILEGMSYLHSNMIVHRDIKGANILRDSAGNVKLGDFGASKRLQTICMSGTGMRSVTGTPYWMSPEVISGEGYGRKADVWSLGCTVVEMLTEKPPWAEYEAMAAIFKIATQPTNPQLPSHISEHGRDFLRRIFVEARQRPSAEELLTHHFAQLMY

[6] = target: T2, Phosphatidylinositol 5-phosphate 4-kinase type-2 gamma (Homo sapiens) (UniProt Q8TBX8); assay: Selectivity interaction (KinomeScan (DiscoverX)) EUB0000045b PIP4K2C
T2 sequence (whole entry): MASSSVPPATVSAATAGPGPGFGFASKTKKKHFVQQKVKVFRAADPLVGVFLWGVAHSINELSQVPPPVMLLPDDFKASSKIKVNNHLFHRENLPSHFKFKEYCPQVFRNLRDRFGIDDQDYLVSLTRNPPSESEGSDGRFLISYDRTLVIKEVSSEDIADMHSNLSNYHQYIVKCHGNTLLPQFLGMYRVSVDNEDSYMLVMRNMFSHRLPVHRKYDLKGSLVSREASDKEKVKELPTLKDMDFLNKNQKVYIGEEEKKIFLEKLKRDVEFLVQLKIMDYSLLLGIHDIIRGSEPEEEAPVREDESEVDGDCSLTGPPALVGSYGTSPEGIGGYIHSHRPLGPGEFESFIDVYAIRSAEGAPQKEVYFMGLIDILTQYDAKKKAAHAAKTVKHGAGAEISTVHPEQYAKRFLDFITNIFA

[7] = target: T3, Protein kinase C iota type (Homo sapiens) (UniProt P41743); assay: Selectivity interaction (KinomeScan (DiscoverX)) EUB0001619a PRKCI; conditions: at 1 µM
T3 sequence (whole entry): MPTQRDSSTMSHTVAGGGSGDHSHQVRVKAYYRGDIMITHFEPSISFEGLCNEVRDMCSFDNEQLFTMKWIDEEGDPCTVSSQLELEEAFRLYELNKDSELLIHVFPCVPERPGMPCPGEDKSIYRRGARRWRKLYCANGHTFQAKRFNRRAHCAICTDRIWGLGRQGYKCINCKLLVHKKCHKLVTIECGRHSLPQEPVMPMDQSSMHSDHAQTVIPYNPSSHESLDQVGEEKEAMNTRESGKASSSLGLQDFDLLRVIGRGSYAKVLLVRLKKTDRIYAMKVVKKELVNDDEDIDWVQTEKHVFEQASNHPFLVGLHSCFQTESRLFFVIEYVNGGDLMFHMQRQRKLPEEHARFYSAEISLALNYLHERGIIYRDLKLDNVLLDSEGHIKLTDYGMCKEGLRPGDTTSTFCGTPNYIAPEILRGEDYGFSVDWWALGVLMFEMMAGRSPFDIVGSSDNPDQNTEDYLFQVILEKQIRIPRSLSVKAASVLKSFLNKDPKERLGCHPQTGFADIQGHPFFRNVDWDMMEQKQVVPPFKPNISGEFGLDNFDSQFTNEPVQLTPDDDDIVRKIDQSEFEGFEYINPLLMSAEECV

[8] = target: T4, Casein kinase I isoform epsilon (Homo sapiens, UniProt P49674); assay: Selectivity interaction (KinomeScan (DiscoverX)) EUB0000607a CSNK1E; conditions: at 10 µM
T4 sequence (P49674 whole entry, looked up, canonical isoform): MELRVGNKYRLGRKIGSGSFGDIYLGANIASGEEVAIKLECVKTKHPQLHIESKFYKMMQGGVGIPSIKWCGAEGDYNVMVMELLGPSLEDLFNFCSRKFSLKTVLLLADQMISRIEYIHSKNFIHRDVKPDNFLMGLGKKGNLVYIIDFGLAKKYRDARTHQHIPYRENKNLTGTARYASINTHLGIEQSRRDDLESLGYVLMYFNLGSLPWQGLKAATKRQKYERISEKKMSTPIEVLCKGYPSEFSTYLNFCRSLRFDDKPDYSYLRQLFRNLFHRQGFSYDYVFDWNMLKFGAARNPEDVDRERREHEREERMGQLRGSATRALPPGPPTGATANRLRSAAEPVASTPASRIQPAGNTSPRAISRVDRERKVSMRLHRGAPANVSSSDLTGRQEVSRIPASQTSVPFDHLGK

[9] = target: T4, Casein kinase I isoform epsilon; assay: Selectivity interaction (SelectScreen profiling (Invitrogen)) EUB0000607a CSNK1E; conditions: at 2 µM
[10] = target: Tyrosine-protein kinase FRK (Homo sapiens) (UniProt P42685); assay: Selectivity interaction (KinomeScan (DiscoverX)) EUB0000607a FRK; conditions: at 10 µM
Sequence of Tyrosine-protein kinase FRK (Homo sapiens) (P42685 whole entry): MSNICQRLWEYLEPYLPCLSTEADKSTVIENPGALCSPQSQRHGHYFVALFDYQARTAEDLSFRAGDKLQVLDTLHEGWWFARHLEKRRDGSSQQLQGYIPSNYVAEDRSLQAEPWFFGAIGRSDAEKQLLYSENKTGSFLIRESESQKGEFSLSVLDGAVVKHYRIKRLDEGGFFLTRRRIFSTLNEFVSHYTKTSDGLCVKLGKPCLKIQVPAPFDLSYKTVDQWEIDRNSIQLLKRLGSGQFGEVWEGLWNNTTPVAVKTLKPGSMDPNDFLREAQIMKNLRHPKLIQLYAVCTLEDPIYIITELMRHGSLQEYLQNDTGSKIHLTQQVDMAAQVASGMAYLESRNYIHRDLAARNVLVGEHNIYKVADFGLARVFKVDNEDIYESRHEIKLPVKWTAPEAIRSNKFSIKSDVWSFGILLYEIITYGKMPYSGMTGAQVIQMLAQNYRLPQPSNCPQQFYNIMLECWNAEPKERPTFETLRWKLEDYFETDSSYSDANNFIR

[11] = target: Cyclin-dependent kinase 2 (Homo sapiens, UniProt P24941); assay: Selectivity interaction (Kinase panel (KiNativ target engagement assay in Jurkat cells)) EUB0001635a CDK2; format: cell-based; conditions: at 1 µM

SMILES: CN(C)C/C=C/C(=O)Nc1ccc(C(=O)N2CCCC(Nc3ncc(Cl)c(-c4c[nH]c5ccccc45)n3)C2)cc1 (centres undefined)
% of control [1]: 6.1%

% of inhibition [2]: -2.2%
SMILES: CC[C@@H]1[C@H](F)C(=O)N[C@@H]1COc1nccc2cc(C(N)=O)c(OC)cc12 [ZIMLOVISERTIB]

IC50 [3]: > 10 µM
SMILES: CCC(=O)N1CC[C@H](Nc2ncnc3c2CN(c2cnc(OC)c(C(F)(F)F)c2)CC3)C1 [LENIOLISIB]

SMILES: COCC(=O)NC/C=C/c1ccc2ncnc(Nc3ccc(Oc4ccc(C)nc4)c(C)c3)c2c1 [CP-724714]
% of control [4]: 11%

% of control ([5]; at 1 µM): 102% | % of control ([5]; at 5 µM): 103%
SMILES: C=CC(=O)Nc1cccc(C(=O)Nc2ccc(Nc3cc(-c4[nH]c(SC)nc4C)ccn3)cc2)c1

SMILES: C=CC(=O)Nc1cc(-n2c(=O)ccc3cnc4ccc(-c5ccc(NS(C)(=O)=O)cc5)cc4c32)ccc1C
% of control ([6]; at 1 µM): 5.6% | % of control ([6]; at 10 µM): 3.9%

SMILES: N#Cc1cccc(-c2c[nH]c3ncnc(N4CCOCC4)c23)c1
% of control [7]: 100%

SMILES: CNC(=O)Nc1ccc(-c2nc(N3CC4CCC(C3)O4)c3cnn(C4CCC5(CC4)OCCO5)c3n2)cc1
% of control [8]: 39% | % of inhibition [9]: 4% | % of control [10]: 68%

SMILES: C=CC(=O)Nc1ccc(C(=O)Nc2[nH]nc3c2CN(C(=O)N[C@H](CN(C)C)c2ccccc2)C3(C)C)cc1
% of engagement ([11]; Selectivity number of off-targets 0.0, Selectivity number of targets 233.0, Source Knowledge https://www.sciencedirect.com/science/article/pii/S2451945619300674?via%3Dihub): -25.3% | % of engagement [11]: -16.4%

— ChEMBL document CHEMBL5465560, “Selectivity Literature for EUbOPEN Chemogenomic Library” (2024)
